According to patent publication US20040241871A1, “Method and apparatus for analyzing endocrine-distrupting substances in vital sample” (priority 2001, published 2004):

Format: in vivo, human
Conditions: for Concentration of Chlordane in Vital Sample, Maternal Serum / Concentration of Chlordane in Vital Sample, Mother's Milk / Concentration of Endocrine-Disrupting Substance in Vital Sample, Cord Serum / Concentration of Endocrine-Disrupting Substance in Vital Sample, Maternal Serum / Concentration of Endocrine-Disrupting Substance in Vital Sample, Mother's Milk / Concentration of Chlordane in Vital Sample, Cord Serum: in fat; for Concentration of Chlordane in Vital Sample, Maternal Serum / Concentration of Chlordane in Vital Sample, Mother's Milk / Concentration of Chlordane in Vital Sample, Cord Serum: individual chlordanes; for PCB isomer value in the cord serum as compared with the maternal serum: cord serum vs maternal serum, confidence coefficient: 95% or more; for Concentration of Endocrine-Disrupting Substance in Vital Sample, Cord Serum / Concentration of Endocrine-Disrupting Substance in Vital Sample, Maternal Serum / Concentration of Endocrine-Disrupting Substance in Vital Sample, Mother's Milk: samples from 10 mothers
Text: Maternal serum, cord serum and mother's milk samples collected from 10 mothers were used (30 samples in total). These samples were used for the analysis test after obtaining the consent from the subjects.
The GPC column used was Shodex (registered trademark) EV-200AC Column (polystyrene-base hard gel column having an inner diameter of 2 mm and a length of 150 mm) manufactured by Showa Denko K. K.
A programmed temperature vaporizer (PTV) was equipped and in the GC part, an inactivated silica tube (2 m (length)×0.53 mm (inner diameter)) and capillary columns DB-5 (0.5 m (length)×0.25 mm (inner diameter), film thickness: 0.25 μm; and 60 m (length)×0.25 mm (inner diameter), film thickness: 0.1 μm), both manufactured by J & W Scientific, were used. After the injection of solution, the temperature was kept at 83° C. (for 5 minutes) and then elevated to 172° C. at 1° C./min and further to 270° C. at 50° C./min. The measurement was performed at 280° C.
In the main test below, the internal standard substances used were 3 kinds of PCBs marked by ^13C (3,3′,4,4′-tetrachlorobiphenyl, 3,3′,4,4′,5-pentachlorobiphenyl, 3,3′,4,4′,5,5′-hexachlorobiphenyl), hexachlorobenzene (HCB) and p,p′-dichlorodiphenyl dichloroethylene (DDE).
The cord serum (8 ml), the maternal serum (4 ml) and the mother's milk (2 ml) each was subjected to fat extraction according to the method by Patterson et al. More specifically, the sample was charged into a separating funnel, the internal standard substance was added, and then saturated ammonium sulfate, ethanol and hexane were added at a ratio of about 1:1:3. After shaking to cause separation into two layers, the aqueous layer was transferred to a different separating funnel and hexane was added thereto. After shaking to cause separation into two layers, the hexane layer was combined with the organic layer obtained at the first separation, washed with water, dried over anhydrous sodium sulfate, filtered, concentrated and dried. Thereafter, the total weight of fat was measured. The average fat amount was 0.197% in the cord serum, 0.895% in the maternal serum and 3.04% in the mother's milk.
Acetone/cyclohexane (3:7) (v/v) was passed through the GPC column at a flow rate of 0.1 ml/min and 20 μl of a solution obtained by dissolving the fat extracted above in 50 to 100 μl of a solvent having the same composition was injected into the GPC.
Based on the results in the preliminary measurement, the elution composition of 0 to 3.2 minutes after the injection of sample was discarded and the fraction of 3.2 to 5.2 minutes was collected in a sample loop (storage amount: 200 μl) and introduced into GC/MS at 5.2 to 7.5 minutes.
The results are shown in Table 1 together with analysis results of other endocrine-disrupting substances.

ClC1=C(Cl)[C@]2(Cl)[C@H]3C[C@H](Cl)[C@H](Cl)[C@H]3[C@@]1(Cl)C2(Cl)Cl (relative stereo) [cis-Chlordane]
Concentration of Chlordane in Vital Sample, Maternal Serum: 0.86 ppb | Concentration of Chlordane in Vital Sample, Mother's Milk: 0.93 ppb

Clc1ccc(-c2cc(Cl)c(Cl)cc2Cl)cc1Cl [#118]
PCB isomer value in the cord serum as compared with the maternal serum: significantly low

Clc1cc(Cl)c(-c2cc(Cl)c(Cl)cc2Cl)cc1Cl [#153]
PCB isomer value in the cord serum as compared with the maternal serum: significantly low

Clc1cc(Cl)c(-c2cc(Cl)c(Cl)c(Cl)c2)c(Cl)c1 [#168]
PCB isomer value in the cord serum as compared with the maternal serum: significantly low

Clc1ccc(-c2cc(Cl)c(Cl)c(Cl)c2Cl)c(Cl)c1Cl [#170]
PCB isomer value in the cord serum as compared with the maternal serum: significantly low

ClC(Cl)=C(c1ccc(Cl)cc1)c1ccc(Cl)cc1 [DDE, p,p′-dichlorodiphenyl dichloroethylene]
Concentration of Endocrine-Disrupting Substance in Vital Sample, Cord Serum: 278.63 ppb | Concentration of Endocrine-Disrupting Substance in Vital Sample, Maternal Serum: 314.48 ppb | Concentration of Endocrine-Disrupting Substance in Vital Sample, Mother's Milk: 343.62 ppb

Clc1c(Cl)c(Cl)c(Cl)c(Cl)c1Cl [HCB, hexachlorobenzene]
Concentration of Endocrine-Disrupting Substance in Vital Sample, Cord Serum: 14.14 ppb | Concentration of Endocrine-Disrupting Substance in Vital Sample, Maternal Serum: 15.71 ppb | Concentration of Endocrine-Disrupting Substance in Vital Sample, Mother's Milk: 14.08 ppb

ClC1=C(Cl)C2(Cl)C3C4OC4C(Cl)C3C1(Cl)C2(Cl)Cl (stereo not drawn) [HCE, heptachloroepoxide]
Concentration of Endocrine-Disrupting Substance in Vital Sample, Cord Serum: 1.55 ppb | Concentration of Endocrine-Disrupting Substance in Vital Sample, Maternal Serum: 2.61 ppb | Concentration of Endocrine-Disrupting Substance in Vital Sample, Mother's Milk: 3.06 ppb

ClC1C(Cl)C(Cl)C(Cl)C(Cl)C1Cl (stereo not drawn) [HCH, hexachlorocyclohexane]
Concentration of Endocrine-Disrupting Substance in Vital Sample, Cord Serum: 189.54 ppb | Concentration of Endocrine-Disrupting Substance in Vital Sample, Maternal Serum: 271.49 ppb | Concentration of Endocrine-Disrupting Substance in Vital Sample, Mother's Milk: 315.58 ppb

ClC1=C(Cl)C2(Cl)C3C(Cl)C=CC3C1(Cl)C2(Cl)Cl (stereo not drawn) [Heptachlor]
Concentration of Endocrine-Disrupting Substance in Vital Sample, Cord Serum: 1.20 ppb | Concentration of Endocrine-Disrupting Substance in Vital Sample, Maternal Serum: 1.17 ppb | Concentration of Endocrine-Disrupting Substance in Vital Sample, Mother's Milk: 0.30 ppb

ClC1=C(Cl)[C@]2(Cl)[C@H]3[C@H]([C@H](Cl)[C@]4(Cl)O[C@H]34)[C@@]1(Cl)C2(Cl)Cl [Oxychlordane]
Concentration of Chlordane in Vital Sample, Cord Serum: 6.66 ppb | Concentration of Chlordane in Vital Sample, Maternal Serum: 6.30 ppb | Concentration of Chlordane in Vital Sample, Mother's Milk: 6.49 ppb

ClC1=C(Cl)[C@]2(Cl)[C@H]3[C@H]([C@H](Cl)C(Cl)[C@@H]3Cl)[C@@]1(Cl)C2(Cl)Cl (stereo partly drawn) [cis-Nonachlor]
Concentration of Chlordane in Vital Sample, Cord Serum: 0.91 ppb | Concentration of Chlordane in Vital Sample, Maternal Serum: 1.54 ppb | Concentration of Chlordane in Vital Sample, Mother's Milk: 2.25 ppb

ClC1=C(Cl)[C@]2(Cl)[C@H]3[C@H]([C@H](Cl)C(Cl)[C@@H]3Cl)[C@@]1(Cl)C2(Cl)Cl (stereo partly drawn) [trans-Nonachlor]
Concentration of Chlordane in Vital Sample, Cord Serum: 16.35 ppb | Concentration of Chlordane in Vital Sample, Maternal Serum: 17.08 ppb | Concentration of Chlordane in Vital Sample, Mother's Milk: 19.58 ppb

ClC1=C(Cl)[C@]2(Cl)C3C(Cl)C(Cl)CC3[C@@]1(Cl)C2(Cl)Cl (stereo partly drawn) [γ-Chlordane]
Concentration of Chlordane in Vital Sample, Cord Serum: 1.64 ppb | Concentration of Chlordane in Vital Sample, Maternal Serum: 1.43 ppb | Concentration of Chlordane in Vital Sample, Mother's Milk: 1.66 ppb
